Usually IC50 stands for the concentration needed to halve the response being measured. Low readings indicate greater potency, high ones weaker potency. For orientation: inhibition means the relative decrease from the control value, in per cent. By melting point is commonly meant the temperature, or range, at which the solid turns liquid.

From publication PMC7999550, “Novel Multifunctional Ascorbic Triazole Derivatives for Amyloidogenic Pathway Inhibition, Anti-Inflammation, and Neuroprotection” (Molecules, 2021) come the findings set out here.

One series concerns COX-2. The series is described as follows: COX-2 mRNA expression in LPS-activated RAW 264.7 (RT-qPCR). As to conditions: 10 and 100 nM, 1 h pretreatment before LPS, n = 3, p < 0.05. The format is cell-based, murine. The protocol:
(§1) Cell lines that reached 80% confluence within 48 h were selected for further gene expression study. […] The experiment was conducted in triplicate. After the cell lines were treated with the testing samples for one hour, 2 μg/mL LPS (lipopolysaccharide; Sigma-Aldrich, St. Louis, MO, USA) was added to the cell lines and then maintained in an incubator for another 24 h to induce the cell inflammatory process. […] Total RNA quality and quantity were examined by NanoDrop. An equivalent of 2000 ng total RNA from each sample was then reverse-transcribed to produce first-strand complementary DNA (cDNA) using a Tetro cDNA Synthesis Kit (Bioline USA Inc., Memphis, TN, USA), according to the manufacturer's instruction. Briefly, the total RNA template was mixed with 4 μ[…] buffer, 1 μL oligo dT(18), 1 μL dNTP mix […], 1 μL Rnase inhibitor, and 1 μL reverse transcriptase. Diethylpyrocarbonate (DEPC)-treated water was then added to a mixture to adjust the volume to a final 20-μl reaction. An incubation process to produce first strand cDNA was carried out in a thermal cycler (SensoQuest Labcycler). Primer annealing and strand extending occurred at 45 °C for 30 min and a reverse transcriptase was finally heat-inactivated at 85 °C for 5 min. The corresponding cDNA products were then used as a template in a quantitative polymerase chain reaction (qPCR) to study COX-2 and iNOS gene expressions, with GAPDH as a reference gene. The primer sequences for qPCR quantifications were as follows: COX-2: [NT] (reverse); iNOS: [NT] (reverse), and GAPDH: [NT] (reverse). […] Then, 20 μL qPCR reaction was prepared by mixing a 1-μL cDNA template with 0.8 μL forward primer […], 0.8 μL reverse primer […], 10 μL SYBR, and 7.4 μL DI water. Gene expression was measured in a 96-well plate using a BIO-RAD iCycler IQ^TM5 detection system. qPCR reaction was initially heated to 95 °C 10 min, and then underwent 40 cycles of 95 °C 15 s and 60 °C 1 min. […] Each corresponding expression was computed as a relative fold change using the 2^-delta delta Ct method, normalized to the GAPDH gene.
Background: Real-time PCR tracks product formation cycle by cycle.

Series [1] concerns P19-derived neurons. Briefly: Viability assay (XTT) on P19-derived neurons. It counts as cell-based. The settings on record: 18 h, nontoxic condition, versus 0.5% DMSO, derivatives at 1 nM. Here is the method: (§2) P19 cells were grown in alpha minimal essential medium (α-MEM) supplemented with 7.5% newborn calf serum (NCS), 2.5% fetal bovine serum (FBS), and 1% antibiotics–antimycotic solution in a 5% CO2 humidified atmosphere at 37 °C. Cells in monolayer cultures were maintained in exponential growth by subculturing every two days.
(§3) Exponentially grown cultures were trypsinized and dissociated into single cells. P19 cells (2 × 10^6 cells/mL) were then suspended in 10 mL α-MEM supplemented with 5% FBS, 1% antibiotics–antimycotic solution, and 0.5 µM all transretinoic acid (RA) and seeded onto a 100-mm bacteriological culture dish. The cells formed large aggregates in suspension. After four days of RA treatment, the aggregates were dissociated by 5-mL glass measuring pipette and replated on poly-L-lysine-precoated multiwell plates (the multiwell plates were coated with 50 µg/mL poly-L-lysine, dissolved in PBS overnight, and sterilized under UV light for 30 min) at 7 × 10^4 cells/mL (150 µL/well in 96-well plate) in α-MEM supplemented with 10% FBS and 1% antibiotics–antimycotic solution and incubated for 24 h. Cytosine-1-β-D-arabinoside or Ara-C (10 µM) was added at day 1 after plating, and the medium was changed every two to three days. The differentiated neuronal cells, P19-derived neurons, were used after day 14 of the differentiation process.
The assay was carried out on P19-derived neurons cultured in a 96-well plate. After 14 days of the differentiation process, the α-MEM, supplemented with 10% FBS, 10 μM Ara-C, and 1% antibiotics–antimycotic solution, was removed and DMSO solutions of the sample, diluted with α-MEM supplemented with 10% FBS and 1% antibiotics–antimycotic solution in the presence of 10 μM Ara-C, were added to produce the concentrations of 10,000, 1000, 100, 10, and 1 nM. A concentration of DMSO was added to the cultures at 0.5% v/v. […] The OD value was determined by using a microplate reader at 450 nm. Data were expressed as mean ± SEM (n = 3, each n was run in triplicate), with the medium as a control, representing 100% cell viability. […]
On the technique in general: Tetrazolium dyes change colour on reduction, which living cells bring about.

The nature of series [2]: Antioxidant activity assay (DPPH). The settings on record: for Antioxidant %Inhibition (±SEM): at a concentration of 400 µM, mean ± SEM, n = 3. Here is the method: […] The reaction was a mixture of 70 µL of DPPH solution (500 µM in 80% methanol), 10 µL of 80% methanol, and 20 µL of test compound. The reaction was incubated at room temperature in the dark for 30 min. The absorbance was then measured at 517 nm using Infinite 200 Pro™ (Tecan). Ascorbic acid was used as a positive control.

The next series has as its system iNOS. The series is described as follows: iNOS mRNA expression in LPS-activated RAW 264.7 (RT-qPCR). The format is cell-based, murine. The settings on record: 10 and 100 nM, 1 h pretreatment before LPS, n = 3, p < 0.05. The protocol:
as §1

The next series deals with T1, BACE1 (Homo sapiens, UniProt P56817).
T1 construct: purchased Sino Biological, Beijing, China
T1 sequence (P56817 46-501): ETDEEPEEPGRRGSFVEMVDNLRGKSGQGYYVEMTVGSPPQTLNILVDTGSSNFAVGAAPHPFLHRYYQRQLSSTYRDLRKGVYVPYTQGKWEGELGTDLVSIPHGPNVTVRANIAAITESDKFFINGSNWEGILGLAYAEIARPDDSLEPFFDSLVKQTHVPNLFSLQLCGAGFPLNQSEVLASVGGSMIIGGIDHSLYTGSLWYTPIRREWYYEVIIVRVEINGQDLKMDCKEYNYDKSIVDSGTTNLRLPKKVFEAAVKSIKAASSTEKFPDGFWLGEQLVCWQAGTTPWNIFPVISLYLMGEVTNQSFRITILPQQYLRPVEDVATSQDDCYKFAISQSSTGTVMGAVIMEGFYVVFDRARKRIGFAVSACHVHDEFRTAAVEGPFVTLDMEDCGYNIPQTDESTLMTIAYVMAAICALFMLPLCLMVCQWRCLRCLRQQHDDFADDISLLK
Briefly: β-Secretase (BACE1) inhibition assay (FRET). It counts as biochemical. The settings on record: for inhibition at 400 µM: at a concentration of 400 µM, mean ± SEM, n = 3. The protocol:
All ascorbic derivatives (2a–2c and 5a–5c), at a concentration of 400 µM, were evaluated for β-secretase inhibitory activities by using the FRET assay. Briefly, the reaction composing 30 µL of 0.01 unit/µL BACE1 enzyme stock solution, 20 µL of 5% DMSO of test compound, 30 µL of sodium acetate buffer (pH 4.5), and 20 µL of 125 µM β-secretase substrate IV (Calbiochem®, San Diego, CA, USA) was incubated at 37 °C for 30 min. Fluorescence was then measured at Ex = 380 nm and Em = 510 nm using a SpectraMax Gemini EM™, San Jose, CA, USA [26, 61]. β-secretase inhibitor I (Anaspec®, Fremont, CA, USA) was used as a positive control, at a concentration of 100 µM. The experiments were performed in triplicate. For the compounds exerting inhibitory activities more than 20%, an IC50 value was further determined.

A further series addresses T2, amyloid-β (1-42) peptide (Homo sapiens, UniProt P05067).
T2 construct: 9 µL of 25 μM working solution of amyloid-β (1-42) peptide; purchased Anaspec, Fremont, CA, USA
The series is described as follows: Amyloid aggregation inhibition assay (ThT). The format is biochemical. As to conditions: for inhibition at 400 µM: at a concentration of 400 µM, ThT, 48 h. Here is the method: The ascorbic derivatives ware evaluated for activities of amyloid β aggregation inhibition at a concentration of 400 µM. Briefly, in each well of transparent plate, 9 µL of 25 μM working solution of amyloid-β (1-42) peptide and 1 µL of test compound were gently mixed and then incubated in the dark at 37 °C for 48 h. After the incubation, 200 µL of 5 µM ThT (Sigma®, Saint Louis, MO, USA) in 50 mM Tris buffer (pH 7.4) was added to each well. Fluorescence was then measured at Ex = 446 nm and Em = 480 nm using a SpectraMax Gemini EM™, San Jose, CA, USA [26, 62]. Curcumin was used as a positive control, at a concentration of 100 µM.

Series [3] relates to P19-derived neurons. Briefly: Neuroprotective assay, serum-deprivation-induced oxidative stress (XTT). The format is cell-based. As to conditions: 1 nM, p > 0.05. Here is the method:
as §2
as §3, with “Cytosine-1-β-D-arabinoside or Ara-C (10 µM) was added at day 1 after plating, and the medium was changed every two to three days. The differentiated neuronal cells, P19-derived neurons, were used after day 14 of the differentiation process.” left out
The assay was carried out with P19-derived neurons cultured in a 96-well plate by using the serum-deprivation method. […] Data were expressed as mean ± SEM (n = 3, each n was run in triplicate), with the medium as a control, representing 100% cell viability. […]

T2 sequence (P05067 672-713 limits assumed): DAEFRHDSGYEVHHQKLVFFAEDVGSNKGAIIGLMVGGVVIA

With `O=C1O[C@H]([C@@H](O)CO)C(O)=C1O` [Ascorbic acid, reference compound], in the series with COX-2, the “expression of COX-2 gene compared to 0.001% DMSO control” value was “downregulate”. Further, in the series on P19-derived neurons [1], the “cytotoxicity / cell viability of P19-derived neurons” value is “decreased”. Further, the IC50 in series [2] was determined as 21.3 µM; at amyloid-β (1-42) peptide, 146 µM. Moreover, the “Antioxidant %Inhibition (±SEM)” value in series [2] came out at 94.85 ± 0.62%. Further, in the series on iNOS, the “expression of iNOS gene compared to 0.001% DMSO control” value is “downregulate”. Further, the inhibition at 400 µM is 7.84 ± 1.75% on BACE1 and 63.4 ± 0.87% against amyloid-β (1-42) peptide (mean ± SEM, n = 3).

With `COc1cc(Cn2cc(COC[C@H](O)[C@H]3OC(=O)C(O)=C3O)nn2)ccc1O` [Compound 2b, (R)-3,4-Dihydroxy-5-((S)-1-hydroxy-2-((1-(4-hydroxy-3-methoxybenzyl)-1H-1,2,3-triazol-4-yl)methoxy)ethyl)furan-2(5H)-one], the IC50 was determined as 156 µM in series [2] and 319 µM against amyloid-β (1-42) peptide. In addition, the “Antioxidant %Inhibition (±SEM)” value in series [2] stood at 62.81 ± 2.62 %. Besides, the “neuroprotective activity compared with quercetin (positive control)” value with P19-derived neurons [3] was “no statistical differences”. Further, the inhibition at 400 µM against BACE1 is 6.29 ± 0.98%; at amyloid-β (1-42) peptide (mean ± SEM, n = 3), 51 ± 2.12%.

Take `O=C1O[C@H]([C@@H](O)COCc2cn(CC3Cc4c([nH]c5ccccc45)CN3)nn2)C(O)=C1O` (stereo partly drawn) [Compound 2c, (R)-3,4-Dihydroxy-5-((S)-1-hydroxy-2-((1-((2,3,4,9-tetrahydro-1H-pyrido[3,4-b]indol-3-yl)-methyl)-1H-1,2,3-triazol-4-yl)methoxy)ethyl)furan-2(5H)-one]: the melting point was in the range of 172 to 174 °C. The “expression of COX-2 gene compared to 0.001% DMSO control” value in the series with COX-2 was “downregulate”. For the same molecule, in series [2], half-maximal inhibition (IC50) was put at 72.3 µM and the “Antioxidant %Inhibition (±SEM)” value amounted to 94.67 ± 0.50%. The “expression of iNOS gene compared to 0.001% DMSO control” value in the series with iNOS is “downregulate”. Further, on BACE1, 726 µM corresponded to half-maximal inhibition (IC50) and at 400 µM the inhibition was 23.5 ± 1.66%. Moreover, the IC50 against amyloid-β (1-42) peptide came out at 92.3 µM. For the same molecule, on amyloid-β (1-42) peptide (mean ± SEM, n = 3), at 400 µM the inhibition was 71.8 ± 1.42%.

Turning to `O=C1O[C@H]([C@@H](O)CO)C(OCc2cn(Cc3ccc(O)cc3)nn2)=C1O` [Compound 5a, (R)-5-((S)-1,2-Dihydroxyethyl)-3-hydroxy-4-((1-(4-hydroxybenzyl)-1H-1,2,3-triazol-4-yl)-methoxy)furan-2(5H)-one], in series [2], the IC50 was 91.2 µM and the “Antioxidant %Inhibition (±SEM)” value is 78.42 ± 0.93 %. Also, the inhibition at 400 µM against amyloid-β (1-42) peptide (mean ± SEM, n = 3) was 34.5 ± 3.62%.

With `COc1cc(Cn2cc(COC3=C(O)C(=O)O[C@@H]3[C@@H](O)CO)nn2)ccc1O` [Compound 5b, (R)-5-((S)-1,2-Dihydroxyethyl)-3-hydroxy-4-((1-(4-hydroxy-3-methoxybenzyl)-1H-1,2,3-triazol-4-yl)methoxy)furan-2(5H)-one], in series [2], it took 103 µM to reach half-maximal inhibition (IC50) and the “Antioxidant %Inhibition (±SEM)” value turned out to be 77.37 ± 1.60 %. The molecule also displayed an inhibition at 400 µM against amyloid-β (1-42) peptide (mean ± SEM, n = 3) of 19.6 ± 1.83%.

Take `O=C1O[C@H]([C@@H](O)CO)C(OCc2cn(CC3Cc4c([nH]c5ccccc45)CN3)nn2)=C1O` (stereo partly drawn) [Compound 5c, (R)-5-((S)-1,2-Dihydroxyethyl)-3-hydroxy-4-((1-((2,3,4,9-tetrahydro-1H-pyrido[3,4-b]indol-3-yl)methyl)-1H-1,2,3-triazol-4-yl)methoxy)furan-2(5H)-one]: the melting point lay within 144 to 146 °C. In the series on COX-2, the “expression of COX-2 gene compared to 0.001% DMSO control” value is listed as “downregulate”. Further, the “cytotoxicity / cell viability of P19-derived neurons” value in the series with P19-derived neurons [1] is “significantly higher viability than 0.5% DMSO”. Further, in series [2], the IC50 turned out to be 62.9 µM and the “Antioxidant %Inhibition (±SEM)” value is reported as 85.84 ± 2.43%. The “expression of iNOS gene compared to 0.001% DMSO control” value with iNOS was “downregulate”. Also, on BACE1, the IC50 was determined as 593 µM and the inhibition at 400 µM is 27.3 ± 1.41%. The IC50 at amyloid-β (1-42) peptide stood at 136 µM. Further, on amyloid-β (1-42) peptide (mean ± SEM, n = 3), the inhibition at 400 µM turned out to be 68.26 ± 0.67%.

Turning to `COc1cc(/C=C/C(=O)CC(=O)/C=C/c2ccc(O)c(OC)c2)ccc1O` [Curcumin, reference compound], on amyloid-β (1-42) peptide (positive control at 100 μM, mean ± SEM, n = 3), 100 µM produced 94.5 ± 1.15% inhibition.
